This note sets out measurements from ChEMBL document CHEMBL2034821, “Synthesis, hypoglycemic and hypolipidemic activities of novel thiazolidinedione derivatives containing thiazole/triazole/oxadiazole ring” (Eur J Med Chem, 2012).

For data set [1], the system named is Rattus norvegicus. Put plainly: Hypoglycemic activity in alloxan-induced diabetic Wistar rat model assessed as reduction in plasma glucose level at 100 mg/kg, po for 15 days measured on day 15. Format: functional. On the set-up: scale not given: the % may be the effect or the level left.
Data set [2] deals with Rattus norvegicus. Put plainly: Hypoglycemic activity in alloxan-induced diabetic Wistar rat model assessed as reduction in plasma glucose level at 10 mg/kg, po for 15 days measured on day 15. The class given is functional. On the set-up: scale not given: the % may be the effect or the level left.
The subject of data set [3] is Rattus norvegicus. Description: Toxicity in Wistar rat at 3 to 100 mg/kg, po for 15 days. The following applies: in vivo, 360 h. On the set-up: dose 3-100 mg/kg, route oral. The class given is organism-based.
Data set [4] has as its system Rattus norvegicus. Description: Hypolipidemic activity in alloxan-induced diabetic Wistar rat model assessed as reduction in triglyceride level at 100 mg/kg, po for 15 days measured on day 15. The class given is functional. On the set-up: scale not given: the % may be the effect or the level left.
The subject of data set [5] is Rattus norvegicus. Put plainly: Hypoglycemic activity in alloxan-induced diabetic Wistar rat model assessed as reduction in plasma glucose level at 30 mg/kg, po for 15 days measured on day 15. The class given is functional. On the set-up: scale not given: the % may be the effect or the level left.
Data set [6] concerns Rattus norvegicus. Description: Hypoglycemic activity in alloxan-induced diabetic Wistar rat model assessed as reduction in plasma glucose level at 3 mg/kg, po for 15 days measured on day 15. Format: functional. On the set-up: scale not given: the % may be the effect or the level left.
For data set [7], the system named is Rattus norvegicus. Description: Hypolipidemic activity in alloxan-induced diabetic Wistar rat model assessed as reduction in triglyceride level at 3 mg/kg, po for 15 days measured on day 15. Format: functional. On the set-up: scale not given: the % may be the effect or the level left.
Data set [8] has as its system Rattus norvegicus. Description: Hypolipidemic activity in alloxan-induced diabetic Wistar rat model assessed as reduction in triglyceride level at 30 mg/kg, po for 15 days measured on day 15. On the set-up: scale not given: the % may be the effect or the level left. The class given is functional.
In data set [9] the test system is Rattus norvegicus. Put plainly: Hypolipidemic activity in alloxan-induced diabetic Wistar rat model assessed as reduction in triglyceride level at 10 mg/kg, po for 15 days measured on day 15. The class given is functional. On the set-up: scale not given: the % may be the effect or the level left.

`Cc1nc(COc2ccc(/C=C3\SC(=O)NC3=O)cc2)cs1`: the Activity in the data set on Rattus norvegicus [1] is reported as 22.87%; in the data set with Rattus norvegicus [2], 10.64%; in the data set on Rattus norvegicus [3], “Non-toxic”; in the data set on Rattus norvegicus [4] it was 38.92%; in the data set with Rattus norvegicus [5], 14.73%; in the data set on Rattus norvegicus [6], 10.42%. Moreover, the Activity in the data set on Rattus norvegicus [7] was found to be 18.62%; in the data set with Rattus norvegicus [8] it was 26.4%; in the data set on Rattus norvegicus [9], 19.2%.
`O=C1NC(=O)/C(=C/c2ccc(OCc3csc(-c4ccccc4)n3)cc2)S1`: the Activity was 29.73% with Rattus norvegicus [1]; 20.36% with Rattus norvegicus [2]; “Non-toxic” with Rattus norvegicus [3]; 53.96% in the data set with Rattus norvegicus [4]; 22.64% with Rattus norvegicus [5]; 17.75% in the data set on Rattus norvegicus [6]. Further, the Activity amounted to 25.24% with Rattus norvegicus [7], 40.26% in the data set on Rattus norvegicus [8] and 21.69% with Rattus norvegicus [9].
As for `O=C1NC(=O)/C(=C/c2ccc(OCCSc3nnc(-c4ccccc4)[nH]3)cc2)S1`, the Activity in the data set with Rattus norvegicus [1] was 22.87%; with Rattus norvegicus [2] it was 10.64%; in the data set with Rattus norvegicus [3], “Non-toxic”; with Rattus norvegicus [4], 38.92%; with Rattus norvegicus [5] it was 14.73%; in the data set on Rattus norvegicus [6] it was 10.42%. The Activity is given as 18.62% with Rattus norvegicus [7], 26.4% with Rattus norvegicus [8] and 19.2% in the data set on Rattus norvegicus [9].
Turning to `O=C1NC(=O)/C(=C/c2ccc(OCCSc3nnc(Cc4ccccc4)[nH]3)cc2)S1`, the Activity was 34.38% with Rattus norvegicus [1]; 19.36% in the data set with Rattus norvegicus [2]; “Non-toxic” with Rattus norvegicus [3]; 41.87% with Rattus norvegicus [4]; 28.54% in the data set with Rattus norvegicus [5]; 18.28% in the data set on Rattus norvegicus [6]. Further, the Activity is 22.45% in the data set with Rattus norvegicus [7], 38.25% with Rattus norvegicus [8] and 22.81% in the data set with Rattus norvegicus [9].
`Cc1ccc(-c2nnc(SCCOc3ccc(/C=C4\SC(=O)NC4=O)cc3)[nH]2)cc1`: the Activity in the data set on Rattus norvegicus [1] is reported as 29.73%; with Rattus norvegicus [2], 20.36%; in the data set with Rattus norvegicus [3], “Non-toxic”; in the data set on Rattus norvegicus [4], 53.96%; in the data set with Rattus norvegicus [5] it was 22.64%; with Rattus norvegicus [6], 16.87%. Moreover, the Activity is 25.24% with Rattus norvegicus [7], 40.26% with Rattus norvegicus [8] and 21.69% in the data set with Rattus norvegicus [9].
Take `O=C1NC(=O)/C(=C/c2ccc(OCCSc3nnc(-c4ccc([N+](=O)[O-])cc4)[nH]3)cc2)S1`: the Activity with Rattus norvegicus [1] was 18.04%; with Rattus norvegicus [2], 13.85%; with Rattus norvegicus [3] it was “Non-toxic”; with Rattus norvegicus [4], 22.08%; with Rattus norvegicus [5] it was 16.02%; in the data set with Rattus norvegicus [6] it was 11.92%. The Activity in the data set on Rattus norvegicus [7] was 14.12%; with Rattus norvegicus [8] it was 18.56%; in the data set with Rattus norvegicus [9], 15.32%.
Turning to `O=C1NC(=O)/C(=C/c2ccc(OCCSc3nnc(-c4ccccc4[N+](=O)[O-])[nH]3)cc2)S1`, the Activity is 26.84% with Rattus norvegicus [1]; 15.28% in the data set on Rattus norvegicus [2]; “Non-toxic” with Rattus norvegicus [3]; 49.12% with Rattus norvegicus [4]; 20.14% with Rattus norvegicus [5]; 14.58% with Rattus norvegicus [6]. The Activity in the data set with Rattus norvegicus [7] was 19.84%; in the data set on Rattus norvegicus [8], 38.64%; with Rattus norvegicus [9], 20.91%.
As for `O=C1NC(=O)/C(=C/c2ccc(OCCSc3nnc(-c4ccc(Cl)cc4)[nH]3)cc2)S1`, the Activity is 28.85% in the data set with Rattus norvegicus [1]; 19.63% with Rattus norvegicus [2]; “Non-toxic” in the data set with Rattus norvegicus [3]; 41.56% in the data set on Rattus norvegicus [4]; 23.68% in the data set with Rattus norvegicus [5]; 16.04% in the data set on Rattus norvegicus [6]. Moreover, the Activity with Rattus norvegicus [7] is listed as 23.85%; in the data set on Rattus norvegicus [8], 32.92%; in the data set on Rattus norvegicus [9], 24.56%.
Take `O=C1NC(=O)/C(=C/c2ccc(OCCSc3nnc(-c4ccc(Br)cc4)[nH]3)cc2)S1`: the Activity was 28.51% in the data set on Rattus norvegicus [1]; 20.43% with Rattus norvegicus [2]; “Non-toxic” in the data set on Rattus norvegicus [3]; 45.68% in the data set with Rattus norvegicus [4]; 19.52% with Rattus norvegicus [5]; 13.15% in the data set with Rattus norvegicus [6]. In addition, the results for the Activity in the data set on Rattus norvegicus [7], in the data set with Rattus norvegicus [8] and in the data set with Rattus norvegicus [9] were 28.35%, 39.45% and 26.87%, respectively.
Consider `COc1ccc(-c2nnc(SCCOc3ccc(/C=C4\SC(=O)NC4=O)cc3)[nH]2)cc1`, for which the Activity is reported as 43.42% with Rattus norvegicus [1]; 33.62% in the data set on Rattus norvegicus [2]; “Non-toxic” with Rattus norvegicus [3]; 71.24% with Rattus norvegicus [4]; 40.04% in the data set with Rattus norvegicus [5]; 41.28% in the data set with Rattus norvegicus [6]. The figures for the Activity with Rattus norvegicus [7], in the data set with Rattus norvegicus [8] and in the data set on Rattus norvegicus [9] were 43.14%, 59.46% and 42.63%, respectively.
Turning to `O=C1NC(=O)/C(=C/c2ccc(OCCSc3nnc(-c4ccccc4)o3)cc2)S1`, the Activity in the data set on Rattus norvegicus [1] was 20.08%; in the data set with Rattus norvegicus [2], 14.64%; with Rattus norvegicus [3], “Non-toxic”; in the data set on Rattus norvegicus [4] it was 33.12%; in the data set with Rattus norvegicus [5] it was 16.13%; in the data set on Rattus norvegicus [6], 11.62%. The Activity came out at 21.56% with Rattus norvegicus [7], 24.05% with Rattus norvegicus [8] and 22.18% in the data set with Rattus norvegicus [9].
`O=C1NC(=O)/C(=C/c2ccc(OCCSc3nnc(Cc4ccccc4)o3)cc2)S1`: the Activity with Rattus norvegicus [1] is listed as 23.08%; in the data set on Rattus norvegicus [2], 16.82%; with Rattus norvegicus [3], “Non-toxic”; in the data set with Rattus norvegicus [4], 34.56%; in the data set with Rattus norvegicus [5], 19.08%; in the data set with Rattus norvegicus [6], 14.23%. Besides, the Activity is listed as 18.52% with Rattus norvegicus [7], 28.02% with Rattus norvegicus [8] and 20.54% in the data set on Rattus norvegicus [9].
Turning to `O=C1NC(=O)/C(=C/c2ccc(OCCSc3nnc(-c4cccnc4)o3)cc2)S1`, the Activity is reported as 50.09% in the data set on Rattus norvegicus [1]; 33.16% in the data set on Rattus norvegicus [2]; “Non-toxic” in the data set with Rattus norvegicus [3]; 72.32% in the data set on Rattus norvegicus [4]; 39.34% in the data set with Rattus norvegicus [5]; 24.35% with Rattus norvegicus [6]. For the same compound, the Activity amounted to 40.66% with Rattus norvegicus [7], 60.78% in the data set with Rattus norvegicus [8] and 45.1% in the data set with Rattus norvegicus [9].
Turning to `O=C1NC(=O)/C(=C/c2ccc(OCCSc3nnc(-c4ccncc4)o3)cc2)S1`, the Activity is recorded as 43.42% in the data set with Rattus norvegicus [1]; 32.62% in the data set with Rattus norvegicus [2]; “Non-toxic” with Rattus norvegicus [3]; 69.72% with Rattus norvegicus [4]; 40% in the data set on Rattus norvegicus [5]; 23.46% with Rattus norvegicus [6]. Further, the Activity in the data set on Rattus norvegicus [7] turned out to be 40.15%; in the data set with Rattus norvegicus [8], 58.48%; in the data set with Rattus norvegicus [9], 42.17%.
As for `CCc1ccc(CCOc2ccc(CC3SC(=O)NC3=O)cc2)nc1` (centres undefined) [PIOGLITAZONE], the Activity with Rattus norvegicus [1] amounted to 45.89%; in the data set with Rattus norvegicus [2], 35.25%; in the data set with Rattus norvegicus [4] it was 75.43%; in the data set on Rattus norvegicus [5] it was 40.96%; in the data set with Rattus norvegicus [6], 47.02%; with Rattus norvegicus [7], 41.6%. Moreover, the Activity in the data set with Rattus norvegicus [8] is listed as 64.59%; with Rattus norvegicus [9], 47.25%.
